Patent publication US8415357B2 (Canbas Co., Ltd., priority 2007, dated 2013)

system: Jurkat cells; assay: Adaptation to G2 cell cycle arrest (G1 increment) in X-ray pre-arrested Jurkat cells, flow cytometry; assay type: cell-based, human; settings: Homo sapiens, Jurkat, 24 h, Table 2; concentration causing half-maximal increase of % cells in G1 phase (G1 increment); Jurkat pre-arrested by 10 Gy X-ray, 24 hours with compound
Method: Phenotype-based screening was used to measure the ability of compounds of the invention to cause adaptation to G2 cell cycle arrest in G2-arrested cells. Adaptation to G2 cell cycle arrest and re-entry into the cell cycle can result in death of the previously G2-arrested cell, or suppression (inhibition) of further proliferation of the previously G2-arrested cell. In a non-limiting embodiment, the ability to cause adaptation to G2 cell cycle arrest was measured by contacting cells in which G2 arrest had been induced by irradiation (e.g., gamma (γ) radiation or X-ray radiation), with compounds of the invention at various concentrations and, for each compound at each concentration, determining the percentage of cells that escaped G2 arrest and re-entered the cell cycle, by determining the percentage of cells in G1 phase. The IC50 value for each compound was calculated as the dosage (usually in μM) that caused half-maximal increase of the percentage of cells in G1 phase (the G1 increment) measured for that compound. Certain invention compounds were initially identified by phenotype-based screening of small molecule libraries for activity against G2-arrested cells as described above.
Jurkat cells (a human T cell lymphoma-derived cell line) were arrested at the G2 phase by X-ray irradiation at 10 Gy, and cultured for 24 hours in 10% fetal calf serum (FCS)/RPMI1640 at 37° C. with 5% CO2/air. (FCS was from Equitech-Bio, Kerrville, Tex., and RPMI1640 was from Sigma-Aldrich, St. Louis, Mo.) Test compounds were added to the medium at the indicated doses, and the cells were cultured under the conditions described above, for an additional 24 hours before harvesting.
Harvested cells were stained with Krishan's buffer (0.1% sodium citrate, 50 μg/ml propidium iodide, 20 μg/ml RNase A, 0.5% Nonidet P-40) and analyzed by flow cytometry (BD Biosciences, Franklin Lakes, N.J.) to identify the cell stage of each cell in the sample. Cells in G1 phase were identified by having […] (2N) DNA content.
The IC50 value for each compound was calculated as the dosage showing half maximal activity to induce the increase of the percentage of cells in G1 phase (the G1 increment). IC50 values were used to measure the activity of compounds and to determine structure-activity relationships.
Pre-arrested Jurkat cells were prepared as described in Example 1. Briefly, Jurkat cells were subjected to X-ray irradiation at a dose of 10 Gy, and cultured for 24 hours in 10% fetal calf serum (FCS)/RPMI1640 at 37° C. with 5% CO2/air, after which time cells were exposed to various concentrations of test compounds, and cultured under the conditions described above for an additional 24 hours before harvesting. Harvested cells were stained with Krishan's buffer (0.1% sodium citrate, 50 μg/ml propidium iodide, 20 μg/ml RNase A, 0.5% Nonidet P-40) and analyzed by flow cytometry (BD Biosciences, Franklin Lakes, N.J.) to identify the cell stage of each cell in the sample. Cells in G1 phase were identified by having […] (2N) DNA content.
The IC50 value for each compound was calculated as the dosage (concentration in μM) that caused half-maximal increase of the percentage of cells in G1 phase (the G1 increment) measured for that test compound. Table 1 below presents the structure, mass, 1H NMR values, and […] values for representative compounds.
The IC50 value for each compound was calculated as the dosage (concentration in μM) that caused half-maximal increase of the percentage of cells in G1 phase (the G1 increment) measured for that test compound. Table 2 below presents structures, IUPAC name, molecular formula, ID number (“SCID”), mass, 1H NMR values, and IC50 values for representative compounds. Table 3 presents structures, IUPAC name, molecular formula, ID number (“SCID”), mass, 1H NMR values, and IC50 values for further representative compounds.

IC50, 450 nM:
CC1=C(C)C(=O)N(Nc2nc(Cl)cc3ccccc23)C1=O [Compound S01098, 1-[(3-chloroisoquinolyl)amino]-3,4-dimethylazoline-2,5-dione]
CCC1=C(C)C(=O)N(Nc2ccc(C(F)(F)F)c(Cl)n2)C1=O [Compound S01553, 1-{[6-chloro-5-(trifluoromethyl)(2-pyridyl)]amino}-3-ethyl-4-methylazoline-2,5-dione]

IC50, 78 nM:
CC1=C(C)C(=O)N(Nc2cc(Cl)c3ccc(Cl)c(Cl)c3n2)C1=O [Compound S01078, 3,4-dimethyl-1-[(4,7,8-trichloro(2-quinolyl))amino]azoline-2,5-dione]
CC1=C(C)C(=O)N(Nc2cc(Cl)c3cccc(Br)c3n2)C1=O [Compound S01247, 1-[(8-bromo-4-chloro(2-quinolyl))amino]-3,4-dimethylazoline-2,5-dione]
COC(=O)CCC1=C(C)C(=O)N(Nc2ccc(C(F)(F)F)c(Cl)n2)C1=O [Compound S01648, Methyl 3-(1-{[6-chloro-5-(trifluoromethyl)(2-pyridyl)]amino}-4-methyl-2,5-dioxoazolin-3-yl)propanoate]

IC50, 300 nM:
CC1=C(C)C(=O)N(Nc2cc(Cl)c3ccc(Br)cc3n2)C1=O [Compound S01311, 1-[(7-bromo-4-chloro(2-quinolyl))amino]-3,4-dimethylazoline-2,5-dione]
CC1=C(C)C(=O)N(Nc2ccc(C(F)(F)F)c(-c3ccc(F)c(Cl)c3)n2)C1=O [Compound S01313, 1-{[6-(3-chloro-4-fluorophenyl)-5-(trifluoromethyl)(2-pyridyl)]amino}-3,4-dimethylazoline-2,5-dione]
CC1=C(C)C(=O)N(Nc2ccc(C(F)(F)F)c(CC(C)C)n2)C1=O [Compound S01457, 3,4-dimethyl-1-{[6-(2-methylpropyl)-5-(trifluoromethyl)(2-pyridyl)]amino}azoline-2,5-dione]

IC50, 625 nM:
CC1=C(C)C(=O)N(Nc2cc(CO)c3ccc(Br)cc3n2)C1=O [Compound S01037, 1-{[7-bromo-4-(hydroxymethyl)(2-quinolyl)]amino}-3,4-dimethylazoline-2,5-dione]
CC(=O)OCc1cc(NN2C(=O)C(C)=C(C)C2=O)nc2cc(Br)ccc12 [Compound S01047, {2-[(3,4-dimethyl-2,5-dioxoazolinyl)amino]-7-bromo-4-quinolyl}methylacetate]
COc1ccc(-c2cc(NN3C(=O)C(C)=C(C)C3=O)nc3c(Cl)cccc23)cc1 [Compound S01191, 1-{[8-chloro-4-(4-methoxyphenyl)(2-quinolyl)]amino}-3,4-dimethylazoline-2,5-dione]
CC1=C(C)C(=O)N(Nc2cc(Cl)c3ccc4ccccc4c3n2)C1=O [Compound S01207, 1-[(4-chlorobenzo[h]quinolin-2-yl)amino]-3,4-dimethylazoline-2,5-dione]
CC1=C(C)C(=O)N(Nc2cc(CN3CCN(Cc4ccccc4)CC3)c3ccc(Br)cc3n2)C1=O [Compound S01268, 1-[(7-bromo-4-{[4-benzylpiperazinyl]methyl}(2-quinolyl))amino]-3,4-dimethylazoline-2,5-dione]
CC1=C(C)C(=O)N(Nc2ccc(C(F)(F)F)c(-c3ccc(Cl)cc3)n2)C1=O [Compound S01371, 1-{[6-(4-chlorophenyl)-5-(trifluoromethyl)(2-pyridyl)]amino}-3,4-dimethylazoline-2,5-dione]
CC1=C(C)C(=O)N(Nc2ccc(C(F)(F)F)c(-c3ccc(C)cc3)n2)C1=O [Compound S01393, 3,4-dimethyl-1-{[6-(4-methylphenyl)-5-(trifluoromethyl)(2-pyridyl)]amino}azoline-2,5-dione]
CC1=C(C)C(=O)N(Nc2ccc(C(F)(F)F)c(-c3cccc(Cl)c3)n2)C1=O [Compound S01474, 1-{[6-(3-chlorophenyl)-5-(trifluoromethyl)(2-pyridyl)]amino}-3,4-dimethylazoline-2,5-dione]
COCC1=C(C)C(=O)N(N(C)c2ccc(C(F)(F)F)c(Cl)n2)C1=O [Compound S01600, 1-{[6-chloro-5-(trifluoromethyl)(2-pyridyl)]methylamino}-3-(methoxymethyl)-4-methylazoline-2,5-dione]

IC50, 156 nM:
CC1=C(C)C(=O)N(Nc2cc(C(F)(F)F)c3ccc(Cl)c(Cl)c3n2)C1=O [Compound S01455, 1-{[7,8-dichloro-4-(trifluoromethyl)(2-quinolyl)]amino}-3,4-dimethylazoline-2,5-dione]

IC50, 120 nM:
CC1=C(C)C(=O)N(N(C)c2ccc(C(F)(F)F)c(Br)n2)C1=O [Compound S01007, 1-{[6-bromo-5-(trifluoromethyl)(2-pyridyl)]methylamino}-3,4-dimethylazoline-2,5-dione]
CC1=C(CCC(C)C)C(=O)N(Nc2ccc(C(F)(F)F)c(Cl)n2)C1=O [Compound S01554, 1-{[6-chloro-5-(trifluoromethyl)(2-pyridyl)]amino}-4-methyl-3-(3-methylbutyl)azoline-2,5-dione]
COCC1=C(C)C(=O)N(Nc2ccc(C(F)(F)F)c(Cl)n2)C1=O [Compound S01599, 1-{[6-chloro-5-(trifluoromethyl)(2-pyridyl)]amino}-3-(methoxymethyl)-4-methylazoline-2,5-dione]

IC50, 200 nM:
CC1=C(C)C(=O)N(Nc2ccc(C(F)(F)F)c(Br)n2)C1=O [Compound S00994, 1-{[6-bromo-5-(trifluoromethyl)(2-pyridyl)]amino}-3,4-dimethylazoline-2,5-dione]
CC1=C(C)C(=O)N(Nc2cc(Cl)c3cccc(Cl)c3n2)C1=O [Compound S01005, 1-[(4,8-dichloro(2-quinolyl))amino]-3,4-dimethylazoline-2,5-dione]
CC1=C(C)C(=O)N(Nc2ccc(C(F)(F)F)c(-c3ccccc3)n2)C1=O [Compound S01266, 3,4-dimethyl-1-{[6-phenyl-5-(trifluoromethyl)(2-pyridyl)]amino}azoline-2,5-dione]
CC1=C(CO)C(=O)N(Nc2ccc(C(F)(F)F)c(Cl)n2)C1=O [Compound S01470, 1-{[6-chloro-5-(trifluoromethyl)(2-pyridyl)]amino}-3-(hydroxymethyl)-4-methylazoline-2,5-dione]
CC(=O)N(c1ccc(C(F)(F)F)c(Cl)n1)N1C(=O)C(C)=C(C)C1=O [Compound S01473, N-(3,4-dimethyl-2,5-dioxoazolinyl)-N-[6-chloro-5-(trifluoromethyl) (2-pyridyl)]acetamide]

IC50, 500 nM:
CC1=C(C)C(=O)N(Nc2ccc(C(F)(F)F)c(C#N)n2)C1=O [Compound S01475, 6-[(3,4-dimethyl-2,5-dioxoazolinyl)amino]-3-(trifluoromethyl)pyridine-2-carbonitrile]

same assay, conditions: Table 2; concentration causing half-maximal increase of % cells in G1 phase (G1 increment); Jurkat pre-arrested by 10 Gy X-ray, 24 hours with compound

IC50, 78 nM:
CC1=C(C)C(=O)N(Nc2cc(CN3CCN(C(=O)OC(C)(C)C)CC3)c3ccc(Br)cc3n2)C1=O [Compound S01589, tert-butyl 4-({2-[(3,4-dimethyl-2,5-dioxoazolinyl)amino]-7-bromo-4-quinolyl}methyl)piperazinecarboxylate]
